Results from patent US20260325533A1, “CDK INHIBITOR COMPOUNDS” (ALEKSIA THERAPEUTICS, INC., priority 2023, published 2026).
Like-named read-outs stand apart in the source and are kept apart here.

What was measured:
CDK1/CCNB1 = CDK1/CCNB1 (Homo sapiens, UniProt P06493); test: CDK1 homogeneous time-resolved fluorescence (HTRF) kinase assay; type: biochemical; details: CDK1/CCNB
Protocol: (§1) A CDK homogeneous time-resolved fluorescence (HTRF) assay was used to assess the potency of the compounds described herein.
(§2) To an untreated 384-well microtiter plate (ProxiPlate) was added 100 nL 100×test compound in DMSO and 5 μL 2×CDK enzyme in assay buffer (50 mM HEPES, 1 mM EGTA, 10 mM MgCl2, 0.01% Tween 20, 2 mM DTT). The plate was centrifuged at 800 RPM for 1 min then incubated for 20 min at 23 °C. 2.5 μL per well of 4×ATP and 2.5 μL 4×ULight™-eIF4E-binding protein 1 (Thr37/46) Peptide substrate were added to all wells. After addition, the plates were centrifuged at 800 RPM for 1 min. The plates were incubated at 23 °C for 60 min. 5 μL per well 4×EDTA solution were added to each well to stop the reaction. 5 μL 4×LANCE Ultra Europium-anti-phospho-eIF4E-binding protein 1 (Thr37/46) antibody were added to each well and the plate was centrifuged for 1 min at 800 RPM. The plate was incubated for 60 min at 23 °C. Fluorescence was read at 340 nm excitation and 665 nm emission on an En Vision 2105 fluorescence reader. The final concentrations of reagents in the activity assay were 0.5 nM CDK1/CCNB1, 1 mM ATP, 50 nM ULight™-eIF4E-binding protein 1 (Thr37/46) Peptide substrate, 1% DMSO, 10 mM EDTA, and 2 nM LANCE Ultra Europium-anti-phospho-eIF4E-binding protein 1 (Thr37/46).
(§3) Dose-response titrations were conducted by using an 11-point, half-logarithmic serial dilution scheme typically starting at 10 μM. Signals were reported as fluorescence units at 665 nm or the ratio of fluorescence units at 665 nm/fluorescence units at 615 nm. Signals are referred to below as “Lance signals”.
(§4) Using this assay, the IC50 values of example compounds were determined. Table 3 illustrates the IC50 for various Example compounds of Formula IA. Table 4 illustrates the IC50 for various other Example compounds of Formula I. ND=not determined.

CDK2/CCNE1 = CDK2/CCNE1 (Homo sapiens, UniProt P24941); test: CDK2 homogeneous time-resolved fluorescence (HTRF) kinase assay; type: biochemical; details: CDK2/CCNE
Protocol: as §1
as §2, with “3” for “0.5”, “CDK2/CCNE1,” for “CDK1/CCNB1,”
as §3, §4

[1] = >250 nM marked x, read-out: CDK1/CCNB IC50 >250 nM
[2] = 25-250 nM marked x, read-out: CDK2/CCNE IC50 25-250 nM
[3] = 25-250 nM marked x, read-out: CDK1/CCNB IC50 25-250 nM

Sequence of CDK1/CCNB1 (P06493 whole entry): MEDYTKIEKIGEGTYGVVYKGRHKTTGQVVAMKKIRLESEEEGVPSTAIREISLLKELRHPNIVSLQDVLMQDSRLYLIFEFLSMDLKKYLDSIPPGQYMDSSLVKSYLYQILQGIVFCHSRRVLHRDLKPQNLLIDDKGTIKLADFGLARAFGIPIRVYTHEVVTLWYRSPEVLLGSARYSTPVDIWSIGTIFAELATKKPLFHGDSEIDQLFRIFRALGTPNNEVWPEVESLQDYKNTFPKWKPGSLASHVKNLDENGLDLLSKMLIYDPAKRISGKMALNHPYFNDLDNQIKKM
Sequence of CDK1/CCNB1 (P14635 whole entry partner): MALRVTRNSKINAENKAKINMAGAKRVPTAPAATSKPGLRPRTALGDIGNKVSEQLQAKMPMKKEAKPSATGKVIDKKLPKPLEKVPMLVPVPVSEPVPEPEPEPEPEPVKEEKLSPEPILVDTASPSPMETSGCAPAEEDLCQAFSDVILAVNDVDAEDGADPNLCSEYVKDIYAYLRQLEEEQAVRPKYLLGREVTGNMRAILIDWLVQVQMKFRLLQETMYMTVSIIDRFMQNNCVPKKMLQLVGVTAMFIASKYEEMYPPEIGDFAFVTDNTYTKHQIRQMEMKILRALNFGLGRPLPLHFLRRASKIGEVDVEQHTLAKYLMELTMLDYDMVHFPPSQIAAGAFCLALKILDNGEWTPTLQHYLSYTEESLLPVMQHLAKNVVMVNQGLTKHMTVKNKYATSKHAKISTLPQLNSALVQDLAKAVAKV

Compound	IC50 (CDK1/CCNB1; [1]) [nM]	IC50 (CDK2/CCNE1; [2]) [nM]	other results
CS(=O)(=O)N1CCC(Nc2cc3c(N4CCCCC4CO)nccc3cn2)CC1 (racemic) [Ex 56, (1-(7-((1-(methylsulfonyl)piperidin-4-yl)amino)-2,6-naphthyridin-1-yl)piperidin-2-yl)methanol]	> 250	25 to 250	–
CS(=O)(=O)N1CCC(Nc2cc3c(N4CCCC4CO)nccc3cn2)CC1 (racemic) [Ex 57, (1-(7-((1-(methylsulfonyl)piperidin-4-yl)amino)-2,6-naphthyridin-1-yl)pyrrolidin-2-yl)methanol]	> 250	25 to 250	–
CS(=O)(=O)N1CCC(Nc2cc3c(C(=O)N4CCC(C#N)C4)nccc3cn2)CC1 (racemic) [Ex 94, 1-(7-((1-(methylsulfonyl)piperidin-4-yl)amino)-2,6-naphthyridine-1-carbonyl)pyrrolidine-3-carbonitrile]	> 250	25 to 250	–
CS(=O)(=O)N1CCC(Nc2cc3c(C(=O)N4CCCC(C#N)C4)nccc3cn2)CC1 (racemic) [Ex 98, 1-(7-((1-(methylsulfonyl)piperidin-4-yl)amino)-2,6-naphthyridine-1-carbonyl)piperidine-3-carbonitrile]	> 250	25 to 250	–
CS(=O)(=O)c1ccc(Nc2cc3c(C4CCC(C#N)CC4)nccc3cn2)cc1 (racemic) [Ex 142, 4-(7-((4-(methylsulfonyl)phenyl)amino)-2,6-naphthyridin-1-yl)cyclohexane-1-carbonitrile]	–	–	IC50 (CDK1/CCNB1; [3]): 25 to 250 nM; IC50 (CDK2/CCNE1; <25 nM, read-out: CDK2/CCNE IC50 <25 nM): < 25 nM
COc1cc(S(=N)(=O)C2COC2)ccc1Nc1cc2c(C#Cc3ccc4c(c3)NC(=O)C43CC3)nccc2cn1 (single isomer, unassigned) [Ex 324, 6'-((7-((2-methoxy-4-(oxetane-3-sulfonimidoyl)phenyl)amino)-2,6-naphthyridin-1-yl)ethynyl)spiro[cyclopropane-1,3'-indolin]-2'-one]	–	–	IC50 (CDK1/CCNB1; [3]): 25 to 250 nM
CC(C)S(=N)(=O)c1ccc(Nc2cc3c(C#Cc4ccc5c(c4)NC(=O)C5(C)CO)nccc3cn2)cc1 (single isomer, unassigned) [Ex 331, 3-(hydroxymethyl)-3-methyl-6-((7-((4-(propan-2-ylsulfonimidoyl)phenyl)amino)-2,6-naphthyridin-1-yl)ethynyl)indolin-2-one]	–	–	IC50 (CDK1/CCNB1; <25 nM, read-out: CDK1/CCNB IC50 <25 nM): < 25 nM
CCC1(CC)C(=O)Nc2cc(C#Cc3nccc4cnc(Nc5ccc(S(=N)(=O)CC)cc5)cc34)ccc21 (single isomer, unassigned) [Ex 428, 3,3-diethyl-6-((7-((4-(ethylsulfonimidoyl)phenyl)amino)-2,6-naphthyridin-1-yl)ethynyl)indolin-2-one]	–	–	IC50 (CDK1/CCNB1; x = IC50 >250 nM, read-out: CDK1/CCNB IC50 (>250 nM column)): > 250 nM
CS(=O)(=O)N1CCC(Nc2cc3c(C(=O)N4CCCCC4)nccc3cn2)CC1 [Ex 97, (7-((1-(methylsulfonyl)piperidin-4-yl)amino)-2,6-naphthyridin-1-yl)(piperidin-1-yl)methanone]	> 250	–	–

More lines, main results first:

IC50 (CDK1/CCNB1; [1]) [nM]	IC50 (CDK2/CCNE1; [2]) [nM]	Compound	other results
> 250	25 to 250	C=CS(=O)(=O)N1CCC(Nc2cc3c(N4CCC(OC(C)=O)C4)nccc3cn2)CC1 (racemic) [Ex 104, 1-(7-((1-(vinylsulfonyl)piperidin-4-yl)amino)-2,6-naphthyridin-1-yl)pyrrolidin-3-yl acetate]	–
> 250	25 to 250	N#CC1CCN(c2nccc3cnc(Nc4cccc(C(=O)NC5CCSC5=O)c4)cc23)CC1 (racemic) [Ex 112, 3-((5-(4-cyanopiperidin-1-yl)-2,6-naphthyridin-3-yl)amino)-N-(2-oxotetrahydrothiophen-3-yl)benzamide]	–
> 250	25 to 250	C=CS(=O)(=O)c1ccc(Nc2cc3c(N4CCCC(C#N)C4)nccc3cn2)cc1 (racemic) [Ex 123, 1-(7-((4-(vinylsulfonyl)phenyl)amino)-2,6-naphthyridin-1-yl)piperidine-3-carbonitrile]	–
> 250	25 to 250	COC(=O)C1CSC(c2nccc3cnc(Nc4ccc(S(C)(=O)=O)cc4)cc23)=N1 (racemic) [Ex 169, methyl 2-(7-((4-(methylsulfonyl)phenyl)amino)-2,6-naphthyridin-1-yl)-4,5-dihydrothiazole-4-carboxylate]	–
